Measured values taken from publication PMC6414029, “Utilisation of the Prestwick Chemical Library to identify drugs that inhibit the growth of mycobacteria” (PLoS ONE, 2019).
Values after ≈ are worked out from the molar mass of the structure shown. Structures can show the parent of a compound that is named as a salt. Where two headings read alike, the source gives them in different places.

What was measured:
M. smegmatis [1] = experiment: microbe, parasite or virus in culture; assay type: cell-based, Mycobacterium smegmatis; details: liquid medium
M. smegmatis [2] = experiment: MIC determination on solid agar; assay type: cell-based, Mycobacterium smegmatis; details: for MIC: read-out: Solid MIC
Protocol: Drugs were diluted from a 10mM stock, mixed individually in 2 mLs of molten 7H10 agar and dispensed in square partitioned petri plates. Plates were incubated at 37°C and solid MIC was determined based on absence of colonies.

BCG [3] = experiment: microbe, parasite or virus in culture; assay type: cell-based, Mycobacterium bovis BCG; details: for MIC: Mycobacterium tuberculosis variant bovis BCG
BCG [4] = experiment: microbe, parasite or virus in culture; assay type: cell-based, Mycobacterium bovis BCG; details: for MIC: Mycobacterium tuberculosis variant bovis BCG, BCG, read-out: Liquid MIC
M. tuberculosis H37Rv = experiment: Alamar Blue (resazurin) MIC assay; assay type: cell-based, Mycobacterium tuberculosis; details: liquid growth media
Protocol: To investigate the effects of repurposed compounds on growth of M. tuberculosis H37Rv using an Alamar Blue based MIC assay using the resazurin reagent. This assay was performed in 7H9 medium containing Middlebrook broth and 0.5% glycerol and supplemented with oleic acid, albumin, dextrose, and catalase. Clear- 96-well plates were inoculated with 100 μL of drug diluted with 90 μl of 7H9 medium and 10 μL DMSO. Serial 3-fold dilutions of each drug in 100 μL of 7H9 medium were prepared at various ranges. Growth controls containing no antibiotic and sterility controls without inoculation were also included. 200 μL of sterile deionized water was added to the outer perimeter wells to prevent evaporation during plate incubation. Plates were incubated plate at 37°C for 3–4 days. After incubation, the plates were removed and 10 μL of resazurin (0.02% w/v) was added to each well that contained bacteria. Assay plates were reincubated at 37°C for 24–48 hours and visually assessed for colour development. OD 570 nm readings were taken to provide further quantitation provide an interpretation of the dose response of the bacterium to repurposed compounds.

HepG2 cells = experiment: HepG2 cytotoxicity assay (CellTitre-Glo); assay type: cell-based
Protocol: Actively growing HepG2 cells were removed from a T-175 tissue culture flask with 5 mL of Eagle’s MEM containing 10% FBS/1%NEAA/1% Penicillin and Streptomycin) and mixed with gentle pipetting. […] The cell suspension was added to 250 mL of the same medium at a final density of […]. […] Plates were allowed to incubate at 37°C at a relative humidity of 80% and 5% CO2 for 48 hours. After incubation, the plates were allowed to equilibrate at room temperature for 30 mins before 25 μL of CellTitre-Glo (Promega) reagent was added to each well using a multichannel pipette. Plates were left at room temperature for 30 mins before relative luminescence was read using a BMG Labtech POLARstar Omega plate reader.

[5] = system: BCG over-expressing EchA12; experiment: microbe, parasite or virus in culture; assay type: cell-based, Mycobacterium bovis BCG
BCG over-expressing AroB = experiment: microbe, parasite or virus in culture; assay type: cell-based, Mycobacterium bovis BCG
[6] = Mycolicibacterium smegmatis, M. smegmatis, 7H10 solid agar, absence of colonies
[7] = read-out: Solid MIC, BCG, 7H10 solid agar, absence of colonies
[8] = read-out: Solid MIC, BCG, solid agar, values given in mM
[9] = M. smegmatis, 7H10 solid agar, absence of colonies

Row | Compound | MIC (M. smegmatis [1]; Mycolicibacterium smegmatis) [µM] | MIC (M. smegmatis [2]; [6]) [µM] | MIC (M. smegmatis [1]) [µM] | MIC (BCG [3]; [7]) [mM] | Liquid MIC (BCG [4]) [µM] | MIC (BCG [4]) [µM] | further results
1 | CCCCC(CC)CNC(=N)NC(=N)NCCCCCCNC(=N)NC(=N)NCC(CC)CCCC (stereo not drawn) [Alexidine] | 6.15 (≈ 3.13 µg/mL) | – | – | – | – | – | –
2 | CN1CCc2cccc3c2[C@H]1Cc1ccc(O)c(O)c1-3 [Apomorphine] | – | 625 (≈ 167 µg/mL) | 241.7 (≈ 64.6 µg/mL) | – | – | – | –
3 | COc1ccc(CCN2CCC(Nc3nc4ccccc4n3Cc3ccc(F)cc3)CC2)cc1 [Astemizole] | – | – | – | 0.05 (≈ 22.9 µg/mL) | 17.78 | 17.8 (≈ 8.16 µg/mL) | MIC (BCG [3]; [8]): ~0.05 mM (≈ 22.9 µg/mL)
4 | CC(=O)OC[C@H]1O[C@@H]([S-])[C@H](OC(C)=O)[C@@H](OC(C)=O)[C@@H]1OC(C)=O.CCP(CC)CC.[Au+] [Auranofin] | – | – | 0.51 | – | – | – | Solid MIC relative to liquid MIC (M. smegmatis [2]; M. smegmatis): 12 fold; MIC (M. smegmatis [2]; [9]): 6.0 µM; MIC (M. tuberculosis H37Rv): 0.27 µM; IC50 (HepG2 cells; 48 hours): 3 µM
5 | [H]/N=C(\N/C(=N/[H])NCCCCCCNC(=N)NC(=N)Nc1ccc(Cl)cc1)Nc1ccc(Cl)cc1 [Chlorhexidine] | 1.98 (≈ 1 µg/mL) | 16 (≈ 8.09 µg/mL) | 1.95 (≈ 0.986 µg/mL) | – | – | – | –
6 | CCN(CC)CCOc1ccc(C(=C(Cl)c2ccccc2)c2ccccc2)cc1 [Clomiphene citrate] | 9.03 to 26.6 | 37.5 | 9.03 | – | – | – | MIC (M. tuberculosis H37Rv; Mycobacterium tuberculosis): 7.59 µM
7 | O=c1c2ccccc2[se]n1-c1ccccc1 [Ebselen] | 10.3 (≈ 2.82 µg/mL) | – | – | – | – | – | MIC (M. tuberculosis H37Rv; Mycobacterium tuberculosis): 18.5 µM (≈ 5.08 µg/mL); IC50 (HepG2 cells; Homo sapiens, HepG2, 48 hours): 45 µM
8 | CC(NCCC(c1ccccc1)c1ccccc1)c1ccccc1 (stereo not drawn) [Fendiline hydrochloride] | 77 to 828 | 15.6 | 77.57 | – | – | – | –
9 | CS(=O)(=O)c1ccc([C@@H](O)[C@@H](CF)NC(=O)C(Cl)Cl)cc1 [Florfenicol] | – | – | – | ~0.005 (≈ 1.79 µg/mL) | 0.67 | 0.7 (≈ 0.251 µg/mL) | Solid MIC relative to liquid MIC (BCG [3]): 5 fold; Solid MIC (BCG [3]; 7H10 solid agar, absence of colonies, listed as Florfenciol): 6 µM; MIC (M. tuberculosis H37Rv; Mycobacterium tuberculosis): 25.4 µM (≈ 9.1 µg/mL); MIC in the absence of EchA12 over-expression, compared with wild-type BCG [5]: unchanged; MIC ([5]; Mycobacterium tuberculosis variant bovis BCG, BCG, read-out: MIC upon over-expression of EchA12): > 12 µM; IC50 (HepG2 cells; Homo sapiens, HepG2, 48 hours): > 250 µM
10 | O=C1NCN(c2ccccc2)C12CCN(CCCC(c1ccc(F)cc1)c1ccc(F)cc1)CC2 [Fluspirilene] | – | – | 827.5 (≈ 394 µg/mL) | – | – | – | –
11 | Fc1ccc(C(OCCN2CCN(CCCc3ccccc3)CC2)c2ccc(F)cc2)cc1 [GBR 12909, Vanoxerine] | 18.6 (≈ 8.38 µg/mL) | 62.5 (≈ 28.2 µg/mL) | – | 0.0282 (≈ 12.7 µg/mL) | – | 20.5 (≈ 9.24 µg/mL) | MIC (M. tuberculosis H37Rv; Mycobacterium tuberculosis): 26.6 µM (≈ 12 µg/mL); IC50 (HepG2 cells; Homo sapiens, HepG2, 48 hours): 55 µM; MIC in the absence of AroB over-expression, compared with wild-type BCG (BCG over-expressing AroB): unchanged; MIC (BCG over-expressing AroB; Mycobacterium tuberculosis variant bovis BCG, BCG, read-out: MIC upon over-expression of AroB): > 50 µM
12 | Cc1cnc(C(=O)NCCc2ccc(S(=O)(=O)NC(=O)NC3CCCCC3)cc2)cn1 [Glipizide] | – | – | – | – | 191.10 | 191 (≈ 85.1 µg/mL) | –
13 | CN1C2CCCC1CC(NC(=O)c1nn(C)c3ccccc13)C2 (stereo not drawn) [Granisteron, Granisetron] | – | – | – | ≥ 0.5 | 210.60 | 211 (≈ 65.8 µg/mL) | MIC (BCG [3]; [8]): > 0.5 mM
14 | CO[C@@H]1[C@@H](O[C@@H]2O[C@H](C)[C@@H](O[C@H]3C[C@@](C)(O)[C@@H](OC(=O)CC(C)C)[C@H](C)O3)[C@H](N(C)C)[C@H]2O)[C@@H](CC=O)C[C@@H](C)[C@@H](O)/C=C/C=C/C[C@@H](C)OC(=O)C[C@H]1OC(C)=O [Josamycin] | – | – | – | > 0.1 | 0.10 | 0.1 (≈ 0.0828 µg/mL) | –
15 | C=C1c2c(Cl)ccc(O)c2C(=O)C2=C(O)[C@]3(O)C(=O)C(C(N)=O)=C(O)[C@@H](N(C)C)[C@@H]3[C@@H](O)[C@H]12 [Meclocyline sulfosalicylate, meclocycline sulfosalicylate] | 0.1 (≈ 0.0477 µg/mL) | – | – | – | – | – | MIC (M. smegmatis [2]; [9]): 0.20 µM (≈ 0.0954 µg/mL); MIC (M. smegmatis [2]; Mycolicibacterium smegmatis): 0.2 µM (≈ 0.0954 µg/mL)
16 | COC(=O)C1=C(C)NC(C)=C(C(=O)OCC(C)C)C1c1ccccc1[N+](=O)[O-] (stereo not drawn) [Nisoldipine] | – | 100 (≈ 38.8 µg/mL) | 396.2 (≈ 154 µg/mL) | – | – | – | –
